Measured values reported in US10220112B2, “Cyclic antimicrobial pseudopeptides and uses thereof” (INSERM (INSTITUT NATIONAL DE LA SANTE ET DE LA RECHERCHE …, priority 2014, dated 2019).
Like-named read-outs stand apart in the source and are kept apart here. Starred links: 1 amine or outer side, 2 acyl side, 3 side chain; linkers in the order of their positions; H or OH if unused. Non-standard residues stand in square brackets, D forms with d. Residues, ends and D or L forms follow the SMILES beside them. azaβ3(1Nal) = O=C(CN(Cc1cccc2ccccc12)N[*:1])[*:2]; X2 = O=C(CN(Cc1ccc2ccccc2c1)N[*:1])[*:2]; X1 = O=C(CN(CC(O)CO)N[*:1])[*:2]

Assays:
[1] = system: Escherichia coli strain K12 XL-Blue; settings: for E. coli MIC: strain K12 XL-Blue; for Minimum Bactericidal Concentration (MBC), E. coli: no colonies on BHI agar after 24 h 37°C
Description: (§1) The antibacterial activity of the synthesized peptides was measured using a standard microdilution assay. Two bacterial species were tested, Staphylococcus aureus strain Newman and Escherichia coli strain K12 XL-Blue. Bacterial strains were subcultured in Mueller-Hinton broth. […] Bacteria were grown to an optical density (600 nm) of 0.5 and diluted 10^3 times in MH broth. Cell density in wells was 10^5 cfu/mL. 100 μL of this suspension was mixed with 100 μL of 2-fold serial dilutions of peptides in the well of a microtitre plate. Purified peptides were first dissolved in appropriate solvent to a final concentration of 2 mg/mL, in the microtitre plate, dilutions were made in MH broth from 1 to 0.004 mg/mL. […] Results obtained in massic concentrations were converted to molar concentrations for proper comparisons. Tests were performed in triplicate.
(§2) The results presented in Table 2 below were obtained in triplicate as described in the case of Table 1 except that the starting concentration was […] instead of 1 mg/mL.

[2] = system: Staphylococcus aureus strain Newman; settings: for S. aureus MIC: strain Newman; for Minimum Bactericidal Concentration (MBC), S. aureus: no colonies on BHI agar after 24 h 37°C
Description: as §1, §2

[3] = system: human erythrocytes; experiment: Lytic activity against human erythrocytes; assay type: cell-based; settings: for Human cells % hemolysis at 500 μM / Human cells H50: Table 2; for Human cells H50: maximal concentration 500 μM; for Human cells H50 (peptide concentration at which half of the human erythrocytes are lysed): Table 1, 2 h 37°C, maximal concentration 1 mg/mL; for hemolysis at 0.2 mg/mL: 0.2 mg/mL (50 μM PepA1, 160 μM Pep11), value expected when choosing SEM concentration; for hemolysis at the MIC: human erythrocytes, at the peptide's MIC
Description: Human blood was collected from EFS (‘Etablissement Francais du Sang’) in Rennes (France). […] After centrifugation, the absorbance of the supernatant was measured at 414 nm. Three wells were positive controls, where the RBC were mixed with water 1% Triton X-100, in these wells the totality of RBC were hemolyzed and the release of hemoglobin was considered to be 100%. Three wells were negative controls, where the RBC were mixed with PBS buffer, in these wells hemolysis was considered to be null. The percentage of hemolysis in each test well was calculated by comparing with controls. For each peptide, bloods from three different donors were tested.

[4] = system: MRSA strain S. aureus N315; settings: Table 2
[5] = system: VISA strain S. aureus Mu 50; settings: Table 2
[6] = Peptides stability in human sera (RP-HPLC)
Description: Peptides stability in human sera. […] The initial time was recorded, and at known time intervals, 100 μL of reaction solution was removed and quenched by adding 200 μL of 95% EtOH and adjusted at pH=2 to eliminate the effect of peptides adsorption to the protein of the human serum. The cloudy reaction sample was cooled (4° C.) for 15 minutes and then spun at 14 000 rpm (Eppendorf centrifuge) for 4 minutes to pellet the precipitated serum proteins.
The different peptides were incubated with human serum up to 10 hours, and their stability was analyzed and their half-lives determined by RP-HPLC (FIG. 1).

[7] = Table 2, starting concentration 500 μM
[8] = Table 1, 20 h 37°C, maximal concentration 1 mg/mL

CC(C)[C@@H]1NC(=O)[C@H](CCCNC(=N)N)NC(=O)[C@H](CCCNC(=N)N)NC(=O)CN(Cc2cccc3ccccc23)NC(=O)[C@H](Cc2ccccc2)NC(=O)CN(Cc2cccc3ccccc23)NC(=O)[C@H](CCCCN)NC1=O [Pep19, (Ψ1Nal-F-Ψ1Nal-RRVK)] (cyclo([azaβ3(1Nal)]F[azaβ3(1Nal)]RRVK))
E. coli MIC [1, 7]: 4 µM
S. aureus MIC [2, 7]: 4 µM
Human cells % hemolysis at 500 μM [3]: 7%
Human cells H50 [3]: nd (not detectable at the maximal concentration tested (500 μM))
MRSA MIC [4]: 4 µM
VISA MIC [5]: 4 µM

H-FFSWLSRRTK-NH2 [Pep3]
E. coli MIC [1, 8]: 95 µM
S. aureus MIC [2, 8]: 190 µM
Human cells H50 (peptide concentration at which half of the human erythrocytes are lysed) [3]: nd (not detectable at the maximal concentration tested (1 mg/mL, 300 to 900 μM))

C[C@@H](O)[C@@H]1NC(=O)[C@H](CCCNC(=N)N)NC(=O)[C@H](CCCNC(=N)N)NC(=O)[C@H](Cc2c[nH]c3ccccc23)NC(=O)[C@H](Cc2ccccc2)NC(=O)[C@H](Cc2ccccc2)NC(=O)[C@H](CCCCN)NC1=O [Pep8, (FFWRRTK)] (cyclo(FFWRRTK))
fold more antibacterial than Pep7 ([2]; species not specified): ~3 fold
fold less hemolytic than Pep7 [3]: 10 fold
Human cells H50 (peptide concentration at which half of the human erythrocytes are lysed) [3]: 160 µM

CC(C)C[C@H](NC(=O)[C@H](Cc1c[nH]c2ccccc12)NC(=O)[C@H](Cc1ccccc1)NC(=O)[C@@H](N)Cc1ccccc1)C(=O)N[C@@H](CCCNC(=N)N)C(=O)N[C@@H](CCCNC(=N)N)C(=O)NN(CC(=O)N[C@@H](CCCCN)C(N)=O)CC(O)CO (stereo partly shown) [Pep9, H-FFWLRRΨHytK-NH2] (H-FFWLRR[X1]K-NH2)
E. coli MIC [1, 8]: 100 µM
MIC, fold lower compared to Pep4, S. aureus [2]: two-fold
S. aureus MIC [2, 8]: 100 µM
lysis of human erythrocytes (in words) [3]: did not trigger detectable lysis
Human cells H50 (peptide concentration at which half of the human erythrocytes are lysed) [3]: nd (not detectable at the maximal concentration tested (1 mg/mL, 300 to 900 μM))

C[C@@H](O)[C@@H]1NC(=O)[C@H](CCCNC(=N)N)NC(=O)[C@H](CCCNC(=N)N)NC(=O)[C@H](CO)NC(=O)[C@H](Cc2c[nH]c3ccccc23)NC(=O)[C@H](Cc2ccccc2)NC(=O)[C@H](Cc2ccccc2)NC(=O)[C@H](CCCCN)NC1=O [Pep7] (cyclo(FFWSRRTK))
E. coli MIC [1, 8]: 13 µM
S. aureus MIC [2, 8]: 30 µM
antibacterial activity, fold increase compared to Pep6 ([2]; species not specified): two-fold
Human cells H50 (peptide concentration at which half of the human erythrocytes are lysed) [3]: 14 µM

H-FFWLSRTK-NH2 [Pep5]
MIC, fold higher than Pep4, E. coli [1]: two-fold
MIC, fold higher than Pep4, S. aureus [2]: two-fold
Human cells H50 (peptide concentration at which half of the human erythrocytes are lysed) [3]: nd (not detectable at the maximal concentration tested (1 mg/mL, 300 to 900 μM))

CC(C)[C@@H]1NC(=O)[C@H](CCCNC(=N)N)NC(=O)[C@H](CCCNC(=N)N)NC(=O)[C@H](Cc2c[nH]c3ccccc23)NC(=O)[C@H](Cc2ccccc2)NC(=O)[C@H](Cc2ccccc2)NC(=O)[C@H](CCCCN)NC1=O [Pep18, (FFWRRVK)] (cyclo(FFWRRVK))
E. coli MIC [1, 7]: 4 µM
S. aureus MIC [2, 7]: 4 µM
MRSA MIC [4]: 8 µM
VISA MIC [5]: 8 µM

CC(C)N1CC(=O)N[C@@H](CCCCN)C(=O)NN(Cc2ccc3ccccc3c2)CC(=O)N[C@@H](Cc2ccccc2)C(=O)NN(Cc2ccc3ccccc3c2)CC(=O)N[C@@H](CCCNC(=N)N)C(=O)N[C@@H](CCCNC(=N)N)C(=O)N1 [Pep16, (Ψ2Nal-F-Ψ2Nal-RR-ΨV-K)]
Human cells H50 [3]: nd (not detectable at the maximal concentration tested (500 μM))

N=C(N)NCCC[C@@H]1NC(=O)CN(Cc2ccc3ccccc3c2)NC(=O)[C@H](Cc2ccccc2)NC(=O)[C@H](Cc2ccccc2)NC(=O)[C@H](CCCCN)NC(=O)CN(CC(O)CO)NC(=O)[C@H](CCCNC(=N)N)NC1=O (stereo partly shown) [Pep15, (FFΨ2-Nal-RR-ΨHyt-K)] (cyclo(FF[X2]RR[X1]K))
E. coli MIC [1, 7]: 2 µM
S. aureus MIC [2, 7]: 2 µM
Human cells % hemolysis at 500 μM [3]: 3%
Human cells H50 [3]: nd (not detectable at the maximal concentration tested (500 μM))
MRSA MIC [4]: 2 µM
VISA MIC [5]: 2 µM

CC(C)N(CC(=O)N[C@@H](CCCCN)C(N)=O)NC(=O)[C@H](CCCNC(=N)N)NC(=O)[C@H](CCCNC(=N)N)NC(=O)CN(Cc1ccc2ccccc2c1)NC(=O)[C@H](Cc1ccccc1)NC(=O)CN(N)Cc1ccc2ccccc2c1 [Pep21, H-Ψ2Nal-F-Ψ2Nal-RR-ΨV-K-NH2]
Human cells H50 [3]: nd (not detectable at the maximal concentration tested (500 μM))

N=C(N)NCCC[C@@H]1NC(=O)[C@H](Cc2c[nH]c3ccccc23)NC(=O)[C@H](Cc2ccccc2)NC(=O)[C@H](Cc2ccccc2)NC(=O)[C@H](CCCCN)NC(=O)CN(CC(O)CO)NC(=O)[C@H](CCCNC(=N)N)NC1=O (stereo partly shown) [Pep11, (FFWRRΨHytK)] (cyclo(FFWRR[X1]K))
E. coli MIC [1, 8]: 3 µM
Minimum Bactericidal Concentration (MBC), E. coli [1]: 8 µM
S. aureus MIC [2, 8]: 7 µM
fold higher antibacterial activity compared to Pep10 ([2]; against the two model bacteria): four-fold
Minimum Bactericidal Concentration (MBC), S. aureus [2]: 16 µM
fold less haemolytic on human erythrocytes than PepA1 [3]: about 12 fold
fold less hemolytic compared to Pep10 [3]: six-fold
hemolysis at 0.2 mg/mL [3]: 10%
Human cells H50 (peptide concentration at which half of the human erythrocytes are lysed) [3]: 840 µM
hemolysis at the MIC [3]: no hemolysis
higher stability in human serum than the PepA1 parental peptide [6]: ~240 fold

H-MLIFVHIIAPVISGCAIAFFSYWLSRRNTK-NH2 [PepA1, reference compound]
E. coli MIC [1, 8]: 8 µM
Minimum Bactericidal Concentration (MBC), E. coli [1]: 16 µM
S. aureus MIC [2, 8]: 8 µM
Minimum Bactericidal Concentration (MBC), S. aureus [2]: 16 µM
hemolysis at 0.2 mg/mL [3]: 50%
Human cells H50 (peptide concentration at which half of the human erythrocytes are lysed) [3]: 70 µM
hemolysis at the MIC [3]: 20%

N=C(N)NCCC[C@@H]1NC(=O)[C@H](Cc2c[nH]c3ccccc23)NC(=O)[C@H](Cc2ccccc2)NC(=O)CN(Cc2cccc3ccccc23)NC(=O)[C@H](CCCCN)NC(=O)CN(CC(O)CO)NC(=O)[C@H](CCCNC(=N)N)NC1=O (stereo partly shown) [Pep12, (Ψ1Nal-FWRR-ΨHyt-K)] (cyclo([azaβ3(1Nal)]FWRR[X1]K))
E. coli MIC [1, 7]: 16 µM
S. aureus MIC [2, 7]: 16 µM
Human cells % hemolysis at 500 μM [3]: 98%
Human cells H50 [3]: 220 µM

CC(C)C[C@@H]1NC(=O)[C@H](Cc2c[nH]c3ccccc23)NC(=O)[C@H](Cc2ccccc2)NC(=O)[C@H](Cc2ccccc2)NC(=O)[C@H](CCCCN)NC(=O)CN(CC(O)CO)NC(=O)[C@H](CCCNC(=N)N)NC(=O)[C@H](CCCNC(=N)N)NC1=O (stereo partly shown) [Pep10, (FFWLRRΨHytK)] (cyclo(FFWLRR[X1]K))
MIC, fold lower compared to Pep9, E. coli [1]: seven-fold
E. coli MIC [1, 8]: 13 µM
MIC, fold lower compared to Pep9, S. aureus [2]: four
S. aureus MIC [2, 8]: 25 µM
lysis of human erythrocytes (in words) [3]: slightly hemolytic
Human cells H50 (peptide concentration at which half of the human erythrocytes are lysed) [3]: 150 µM

CC(C)C[C@@H]1NC(=O)[C@H](Cc2c[nH]c3ccccc23)NC(=O)[C@H](Cc2ccccc2)NC(=O)[C@H](Cc2ccccc2)NC(=O)[C@H](CCCCN)NC(=O)[C@H]([C@@H](C)O)NC(=O)[C@H](CCCNC(=N)N)NC(=O)[C@H](CCCNC(=N)N)NC(=O)[C@H](CO)NC1=O [Pep6] (cyclo(FFWLSRRTK))
MIC, fold reduced compared to Pep5, E. coli [1]: ten-fold
MIC, fold reduced compared to Pep5, S. aureus [2]: ten-fold
fold higher activity than linear Pep4 ([2]; species not specified): 4 fold
lysis of human erythrocytes (in words) [3]: substantial hemolysis
Human cells H50 (peptide concentration at which half of the human erythrocytes are lysed) [3]: 5 µM
stabilizing effect in human serum compared with linear Pep4 [6]: ~320 fold

H-FFWLSRRTK-NH2 [Pep4]
E. coli MIC [1, 8]: 100 µM
S. aureus MIC [2, 8]: 200 µM
Human cells H50 (peptide concentration at which half of the human erythrocytes are lysed) [3]: nd (not detectable at the maximal concentration tested (1 mg/mL, 300 to 900 μM))

H-FFSYWLSRRTK-NH2 [Pep2]
E. coli MIC [1, 8]: 80 µM
S. aureus MIC [2, 8]: 170 µM
Human cells H50 (peptide concentration at which half of the human erythrocytes are lysed) [3]: nd (not detectable at the maximal concentration tested (1 mg/mL, 300 to 900 μM))
